Source: US20250312499A1, “KISSPEPTIN RECEPTOR (KISS1R) TARGETED THERAPEUTICS AND USES THEREOF” (priority 2024, published 2025)
pKi: −log10 of the molar value. Like-named read-outs stand apart in the source and are kept apart here. Numbered stars: 1 amine (or outer) side, 2 acyl side, 3 side chain; on linkers, the order of the positions; unused ones are H or OH. Square brackets hold non-standard residues; d marks the D form. Side chains are listed from the residue outwards. Peptide text beside a SMILES is read from it. * marks the point of attachment. DOTA(Lu) = O=C1CN2CCN3CCN(CC(=O)*)CCN(CC2)CC(=O)[O][Lu]([O]1)[O]C(=O)C3; DOTA = O=C(O)CN1CCN(CC(=O)O)CCN(CC(=O)*)CCN(CC(=O)O)CC1; Ala(9-anthryl) = N[C@@H](Cc1c2ccccc2cc2ccccc12)C(=O)O; Gly(N-(3-F-4-Me-benzyl)) = Cc1ccc(CNCC(=O)*)cc1F; Api(1-amidino) = N=C(N)N1CCC(N)(C(=O)O)CC1; Phe(4-I) = N[C@@H](Cc1ccc(I)cc1)C(=O)O; γGlu = O=C(O)[C@H](CCC(=O)[*:2])N[*:1]; 2Nal = N[C@@H](Cc1ccc2ccccc2c1)C(=O)O; Palmitoyl = CCCCCCCCCCCCCCCC(=O)*; Trx = NC[C@H]1CC[C@H](C(=O)O)CC1; dCya = N[C@H](CS(=O)(=O)O)C(=O)O; 4Pal = N[C@@H](Cc1ccncc1)C(=O)O; PEG4 = NCCOCCOCCOCCOCCC(=O)O; 4Amb = NCc1ccc(C(=O)O)cc1; Nle = CCCC[C@H](N)C(=O)O; Api = NC1(C(=O)O)CCNCC1; Ahx = NCCCCCC(=O)O; azaGly = NNC(=O)O

Target: human kisspeptin receptor (Homo sapiens (Human), UniProt Q969F8)
Sequence (Q969F8 whole entry): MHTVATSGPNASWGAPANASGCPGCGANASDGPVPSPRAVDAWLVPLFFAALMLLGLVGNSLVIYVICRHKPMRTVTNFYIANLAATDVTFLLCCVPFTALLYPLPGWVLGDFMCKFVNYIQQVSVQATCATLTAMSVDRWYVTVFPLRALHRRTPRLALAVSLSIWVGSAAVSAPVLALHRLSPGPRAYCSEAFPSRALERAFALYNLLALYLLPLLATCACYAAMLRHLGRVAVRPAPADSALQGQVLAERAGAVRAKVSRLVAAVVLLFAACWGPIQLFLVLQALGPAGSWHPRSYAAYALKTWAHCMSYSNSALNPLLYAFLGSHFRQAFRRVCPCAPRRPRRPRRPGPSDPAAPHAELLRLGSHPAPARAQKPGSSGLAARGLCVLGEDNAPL
Assay: Human KISS1R binding assay (membrane competition binding)
Summary of the method: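 Radioligand competition: 0.2 nM [125I]-metastin (45-54) displaced by test ligand (usually 0–10,000 nM) over 90 min at room temperature, pH 7.4 buffer with 0.1% BSA. Receptor source is crude membrane (5–10 μg) from tetracycline-induced Flp-In T-Rex 293 cells. Bound label filtered and counted; Ki from non-linear regression.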

[1] = 90 min at room temperature, competition with 0.2 nM [125I]-metastin (45-54), Flp-In T-Rex 293 kisspeptin membranes, metal complexes nonradioactive Ga, In, Lu, read-out: hKiSSR Binding Ki (90 min)

| Structure (SMILES) | pKi [1] | pKi |
| --- | --- | --- |
| Cc1ccc(CNCC(=O)N2CCC(NC(=O)[C@H](CC(C)C)NC(=O)NNC(=O)[C@H](Cc3ccccc3)NC(=O)[C@H](C)NC(=O)[C@H](CC(N)=O)NC(=O)[C@@H](Cc3c[nH]c4ccccc34)NC(=O)[C@@H](Cc3ccc(O)cc3)NC(=O)CCCCCNC(=O)CN3CCN(CC(=O)O)CCN(CC(=O)O)CCN(CC(=O)O)CC3)(C(=O)N[C@@H](CC(C)C)C(N)=O)CC2)cc1F [Compound 113] ({DOTA-Ahx}-[dY][dW]NAF[azaGly]L[Api](Gly(N-(3-F-4-Me-benzyl)))L-NH2) | > 8.00 |  |
| Cc1ccc(CNCC(=O)N2CCC(NC(=O)[C@H](CC(C)C)NC(=O)NNC(=O)[C@H](Cc3ccccc3)NC(=O)[C@@H](NC(=O)[C@H](CC(N)=O)NC(=O)[C@@H](Cc3c[nH]c4ccccc34)NC(=O)[C@@H](Cc3ccc(O)cc3)NC(=O)CCCCCNC(=O)[C@@H](CS(=O)(=O)O)NC(=O)[C@@H](CS(=O)(=O)O)NC(=O)[C@@H](CS(=O)(=O)O)NC(=O)CN3CCN(CC(=O)O)CCN(CC(=O)O)CCN(CC(=O)O)CC3)[C@@H](C)O)(C(=O)N[C@@H](Cc3c[nH]c4ccccc34)C(N)=O)CC2)cc1F [Compound 114] ({DOTA}-[dCya][dCya][dCya][Ahx][dY][dW]NTF[azaGly]L[Api](Gly(N-(3-F-4-Me-benzyl)))W-NH2) | > 8.00 |  |
| Cc1ccc(CNCC(=O)N2CCC(NC(=O)[C@H](CC(C)C)NC(=O)NNC(=O)[C@H](Cc3ccccc3)NC(=O)[C@@H](NC(=O)[C@H](CC(N)=O)NC(=O)[C@@H](Cc3c[nH]c4ccccc34)NC(=O)[C@@H](Cc3ccc(O)cc3)NC(=O)CCCCCNC(=O)[C@@H](CS(=O)(=O)O)NC(=O)CN3CCN(CC(=O)O)CCN(CC(=O)O)CCN(CC(=O)O)CC3)[C@@H](C)O)(C(=O)N[C@@H](Cc3c[nH]c4ccccc34)C(N)=O)CC2)cc1F [Compound 115] ({DOTA}-[dCya][Ahx][dY][dW]NTF[azaGly]L[Api](Gly(N-(3-F-4-Me-benzyl)))W-NH2) | > 8.00 |  |
| Cc1ccc(CNCC(=O)N2CCC(NC(=O)[C@H](CC(C)C)NC(=O)NNC(=O)[C@H](Cc3ccccc3)NC(=O)CCCCCNC(=O)[C@@H](CS(=O)(=O)O)NC(=O)CN3CCN(CC(=O)O)CCN(CC(=O)O)CCN(CC(=O)O)CC3)(C(=O)N[C@@H](Cc3c[nH]c4ccccc34)C(N)=O)CC2)cc1F [Compound 116] ({DOTA}-[dCya][Ahx]F[azaGly]L[Api](Gly(N-(3-F-4-Me-benzyl)))W-NH2) | > 8.00 |  |
| Cc1ccc(CNCC(=O)N2CCC(NC(=O)[C@H](CC(C)C)NC(=O)NNC(=O)[C@H](Cc3ccccc3)NC(=O)[C@@H](NC(=O)[C@H](CC(N)=O)NC(=O)[C@H](Cc3ccc4ccccc4c3)NC(=O)[C@@H](Cc3ccc(O)cc3)NC(=O)CCCCCNC(=O)CN3CCN4CCN5CCN(CC3)CC(=O)[O][Lu]([O]C(=O)C4)[O]C(=O)C5)[C@@H](C)O)(C(=O)N[C@@H](Cc3c[nH]c4ccccc34)C(N)=O)CC2)cc1F [Compound 118-Lu] ({DOTA(Lu)-Ahx}-[dY][2Nal]NTF[azaGly]L[Api](Gly(N-(3-F-4-Me-benzyl)))W-NH2) |  | > 8.00 |
| Cc1ccc(CNCC(=O)N2CCC(NC(=O)[C@H](CC(C)C)NC(=O)NNC(=O)[C@H](Cc3ccccc3)NC(=O)[C@@H](NC(=O)[C@H](CC(N)=O)NC(=O)[C@H](Cc3ccc4ccccc4c3)NC(=O)[C@@H](Cc3ccc(O)cc3)NC(=O)CCCCCNC(=O)CN3CCN(CC(=O)O)CCN(CC(=O)O)CCN(CC(=O)O)CC3)[C@@H](C)O)(C(=O)N[C@@H](Cc3c[nH]c4ccccc34)C(N)=O)CC2)cc1F [Compound 118] ({DOTA-Ahx}-[dY][2Nal]NTF[azaGly]L[Api](Gly(N-(3-F-4-Me-benzyl)))W-NH2) | > 8.00 |  |
| CCCCCCCCCCCCCCCC(=O)N[C@@H](CCC(=O)N[C@@H](CCCCNC(=O)CCOCCOCCOCCOCCNC(=O)CN1CCN(CC(=O)O)CCN(CC(=O)O)CCN(CC(=O)O)CC1)C(=O)N[C@H](Cc1ccc(O)cc1)C(=O)N[C@H](Cc1c[nH]c2ccccc12)C(=O)N[C@@H](CC(N)=O)C(=O)N[C@H](C(=O)N[C@@H](Cc1ccccc1)C(=O)NNC(=O)N[C@@H](CC(C)C)C(=O)NC1(C(=O)N[C@@H](Cc2c[nH]c3ccccc23)C(N)=O)CCN(C(=O)CNCc2ccc(C)c(F)c2)CC1)[C@@H](C)O)C(=O)O [Compound 119] ({Palmitoyl-γGlu}-K([PEG4-DOTA])[dY][dW]NTF[azaGly]L[Api](Gly(N-(3-F-4-Me-benzyl)))W-NH2) | > 8.00 |  |
| Cc1ccc(CNCC(=O)N2CCC(NC(=O)[C@H](CC(C)C)NC(=O)NNC(=O)[C@H](Cc3ccccc3)NC(=O)[C@@H](NC(=O)[C@H](CC(N)=O)NC(=O)[C@@H](Cc3c[nH]c4ccccc34)NC(=O)[C@@H](Cc3ccc(O)cc3)NC(=O)CCCCCNC(=O)[C@@H](CS(=O)(=O)O)NC(=O)[C@@H](CS(=O)(=O)O)NC(=O)CN3CCN(CC(=O)O)CCN(CC(=O)O)CCN(CC(=O)O)CC3)[C@@H](C)O)(C(=O)N[C@@H](Cc3c[nH]c4ccccc34)C(N)=O)CC2)cc1F [Compound 120] ({DOTA}-[dCya][dCya][Ahx][dY][dW]NTF[azaGly]L[Api](Gly(N-(3-F-4-Me-benzyl)))W-NH2) | > 8.00 |  |
| CC(C)C[C@H](NC(=O)NNC(=O)[C@H](Cc1ccc(I)cc1)NC(=O)[C@@H](NC(=O)[C@H](CC(N)=O)NC(=O)[C@H](Cc1ccc(I)cc1)NC(=O)[C@@H](Cc1ccc(O)cc1)NC(=O)CN1CCN(CC(=O)O)CCN(CC(=O)O)CCN(CC(=O)O)CC1)[C@@H](C)O)C(=O)NC1(C(=O)N[C@@H](Cc2ccncc2)C(N)=O)CCN(C(=N)N)CC1 [Compound 121] ({DOTA}-[dY][Phe(4-I)]NT[Phe(4-I)][azaGly]L[Api(1-amidino)][4Pal]-NH2) | 7.00 to 8.00 |  |
| CCCC[C@H](NC(=O)NNC(=O)[C@H](Cc1ccccc1)NC(=O)[C@@H](NC(=O)[C@H](CC(N)=O)NC(=O)[C@H](Cc1c2ccccc2cc2ccccc12)NC(=O)[C@@H](Cc1ccc(O)cc1)NC(=O)CN1CCN(CC(=O)O)CCN(CC(=O)O)CCN(CC(=O)O)CC1)[C@@H](C)O)C(=O)NC1(C(=O)N[C@@H](Cc2ccncc2)C(N)=O)CCN(C(=N)N)CC1 [Compound 123] ({DOTA}-[dY][Ala(9-anthryl)]NTF[azaGly][Nle][Api(1-amidino)][4Pal]-NH2) | < 7.00 |  |
| Cc1ccc(CNCC(=O)N2CCC(NC(=O)[C@H](CC(C)C)NC(=O)NNC(=O)[C@H](Cc3ccccc3)NC(=O)CCCCCNC(=O)[C@@H](CS(=O)(=O)O)NC(=O)[C@@H](CS(=O)(=O)O)NC(=O)CN3CCN(CC(=O)O)CCN(CC(=O)O)CCN(CC(=O)O)CC3)(C(=O)N[C@@H](Cc3c[nH]c4ccccc34)C(N)=O)CC2)cc1F [Compound 130] ({DOTA}-[dCya][dCya][Ahx]F[azaGly]L[Api](Gly(N-(3-F-4-Me-benzyl)))W-NH2) | > 8.00 |  |

Now from value to compound, other results behind:

| pKi [1] | Structure (SMILES) | pKi |
| --- | --- | --- |
| > 8.00 | Cc1ccc(CNCC(=O)N2CCC(NC(=O)[C@H](CC(C)C)NC(=O)NNC(=O)[C@H](Cc3ccccc3)NC(=O)[C@@H](NC(=O)[C@H](CC(N)=O)NC(=O)[C@@H](Cc3c[nH]c4ccccc34)NC(=O)[C@@H](Cc3ccc(O)cc3)NC(=O)CCCCCNC(=O)CN3CCN(CC(=O)O)CCN(CC(=O)O)CCN(CC(=O)O)CC3)[C@@H](C)O)(C(=O)N[C@@H](Cc3ccncc3)C(N)=O)CC2)cc1F [Compound 105] ({DOTA-Ahx}-[dY][dW]NTF[azaGly]L[Api](Gly(N-(3-F-4-Me-benzyl)))[4Pal]-NH2) |  |
| > 8.00 | Cc1ccc(CNCC(=O)N2CCC(NC(=O)[C@H](CC(C)C)NC(=O)NNC(=O)[C@H](Cc3ccccc3)NC(=O)[C@@H](NC(=O)[C@H](CC(N)=O)NC(=O)[C@@H](Cc3c[nH]c4ccccc34)NC(=O)[C@H](CC(N)=O)NC(=O)[C@@H](Cc3ccc(O)cc3)NC(=O)CCCCCNC(=O)CN3CCN(CC(=O)O)CCN(CC(=O)O)CCN(CC(=O)O)CC3)[C@@H](C)O)(C(=O)N[C@@H](Cc3ccncc3)C(N)=O)CC2)cc1F [Compound 106] ({DOTA-Ahx}-[dY]N[dW]NTF[azaGly]L[Api](Gly(N-(3-F-4-Me-benzyl)))[4Pal]-NH2) |  |
| > 8.00 | Cc1ccc(CNCC(=O)N2CCC(NC(=O)[C@H](CC(C)C)NC(=O)NNC(=O)[C@H](Cc3ccccc3)NC(=O)[C@@H](NC(=O)[C@H](CC(N)=O)NC(=O)[C@@H](Cc3c[nH]c4ccccc34)NC(=O)[C@@H](Cc3c[nH]cn3)NC(=O)[C@@H](Cc3ccc(O)cc3)NC(=O)CCCCCNC(=O)CN3CCN(CC(=O)O)CCN(CC(=O)O)CCN(CC(=O)O)CC3)[C@@H](C)O)(C(=O)N[C@@H](Cc3ccncc3)C(N)=O)CC2)cc1F [Compound 107] ({DOTA-Ahx}-[dY][dH][dW]NTF[azaGly]L[Api](Gly(N-(3-F-4-Me-benzyl)))[4Pal]-NH2) |  |
| > 8.00 | Cc1ccc(CNCC(=O)N2CCC(NC(=O)[C@H](CC(C)C)NC(=O)NNC(=O)[C@H](Cc3ccccc3)NC(=O)[C@@H](NC(=O)[C@H](CC(N)=O)NC(=O)NNC(=O)[C@@H](Cc3ccc(O)cc3)NC(=O)CCCCCNC(=O)CN3CCN(CC(=O)O)CCN(CC(=O)O)CCN(CC(=O)O)CC3)[C@@H](C)O)(C(=O)N[C@@H](Cc3c[nH]c4ccccc34)C(N)=O)CC2)cc1F [Compound 108] ({DOTA-Ahx}-[dY][azaGly]NTF[azaGly]L[Api](Gly(N-(3-F-4-Me-benzyl)))W-NH2) |  |
| > 8.00 | Cc1ccc(CNCC(=O)N2CCC(NC(=O)[C@H](CC(C)C)NC(=O)NNC(=O)[C@H](Cc3ccccc3)NC(=O)c3ccc(CNC(=O)CN4CCN(CC(=O)O)CCN(CC(=O)O)CCN(CC(=O)O)CC4)cc3)(C(=O)N[C@@H](Cc3c[nH]c4ccccc34)C(N)=O)CC2)cc1F [Compound 109] ({DOTA-4Amb}-F[azaGly]L[Api](Gly(N-(3-F-4-Me-benzyl)))W-NH2) |  |
| > 8.00 | Cc1ccc(CNCC(=O)N2CCC(NC(=O)[C@H](CC(C)C)NC(=O)NNC(=O)[C@H](Cc3ccccc3)NC(=O)[C@H]3CC[C@H](CNC(=O)c4ccc(CNC(=O)CN5CCN(CC(=O)O)CCN(CC(=O)O)CCN(CC(=O)O)CC5)cc4)CC3)(C(=O)N[C@@H](Cc3c[nH]c4ccccc34)C(N)=O)CC2)cc1F [Compound 110] ({DOTA-4Amb-Trx}-F[azaGly]L[Api](Gly(N-(3-F-4-Me-benzyl)))W-NH2) |  |
